Results taken from patent publication US12275684B2, “Methods for making and using endoxifen” (Atossa Therapeutics, Inc., priority 2017, dated 2025).
Like-named read-outs stand apart in the source and are kept apart here.

Test: Placebo controlled, dose escalation pharmacokinetic study of oral (Z)-Endoxifen capsules (serum endoxifen; incl. accumulation ratios and dose linearity)
Assay type: in vivo, human
Conditions: female, human, serum
Text: An objective of the study was to assess the safety and tolerability of oral (Z)-Endoxifen when administered […] orally as a capsule to healthy female volunteers. A secondary objective was to assess the pharmacokinetics of multiple doses of oral (Z)-Endoxifen in the subjects.
Generally, healthy female volunteers aged ≥18 years and ≤65 years were enrolled. 24 participants were enrolled in 3 cohorts and will be administered study drug orally. Three dose levels of orally administered (Z)-Endoxifen were investigated in 3 cohorts. In each cohort participants were randomized to receive an oral (Z)-Endoxifen or placebo in a blinded fashion. Enteric-resistant capsules used in the study were designed as delayed release capsules to resist rupture for at least 30 minutes, but typically, for about 2 hours, under gastric conditions and then open fully in intestinal fluid (DRCaps; Capsugel, a Lonza Company, USA). Enteric-resistant (Swedish Orange size Zero (0); Capsugel, USA) DRCaps capsules manually filled with 1, 2 or 4 mg of (Z)-endoxifen neat in compliance with GMP requirements were used. Placebo capsules contained microcrystalline cellulose an inert common capsule and tablet excipient.
Each cohort enrolled 8 participants, with 6 participants receiving (Z)-Endoxifen 1 mg capsules orally at 1 mg (Cohort 1), 2 mg (Cohort 2) or 4 mg (Cohort 3) doses and 2 participants receiving matching placebo capsules. In Cohort 1 (Dose Level=1 mg) two participants (sentinels) were dosed 24 hours prior to the remaining participants. One sentinel was dosed with (Z)-Endoxifen and the other with placebo. The remaining six participants in Cohort 1 were dosed as no safety concerns were identified in the sentinel participants. The non-sentinel participants in Cohort 1 were admitted to the clinical research facility at least one day later than the sentinels. There were no sentinels in Cohorts 2 and 3.
Participant engagement in this study was for a period of 56 days. These included a 28 day screening period, and a 7 day post treatment period for Pharmacokinetic (PK) sampling. There were two confinement periods, one at the beginning and one at the end of the dosing periods. Participants were confined to the clinical facility on Days-1 through to Day 2 and Days 21 and 22. If participants were to experience any clinically significant adverse events during the study, they would have been required to remain in the clinical facility for further observation at the discretion of the Principal Investigator (PI).
Healthy female volunteers were screened within 28 days prior to commencement of dosing. Participants were admitted to the clinical facility on Day-1 for up to 3 days. The first dose of (Z)-Endoxifen or placebo capsules was administered on Day 1. Following completion of all safety assessments and sampling for PK analyses, participants were discharged from the clinical facility on Day 2. The first dose on Day 1 was followed by a 6-day treatment free period (Days 2-7). Each participant returned to the clinical facility for PK blood draws and safety assessments during the treatment free period on study Days 4 and 6. On Day 8 participants commenced daily administration of (Z)-Endoxifen capsules or placebo capsules for 14 consecutive days (Days 8-21). Participants were supplied with study drug capsules and asked to self administer daily. Participants visited the clinical facility on Days 11, 14 and 17, prior to dose administration, for PK blood draws and safety assessments. On the morning of Day 21 each participant returned to the clinical facility prior to dose administration and were confined to the facility until Day 22 to allow for the collection of PK blood draws and safety assessments. The Day 21 dose was the last administration of study drug. Participants were discharged from the clinical facility on Day 22 and returned for PK blood draws and safety assessments on study Days 24, 26, and 28. […]

Structure (SMILES): CC/C(=C(\c1ccc(O)cc1)c1ccc(OCCNC)cc1)c1ccccc1 [(Z)-Endoxifen, (Z)-4-(1-(4-(2-(methylamino)ethoxy)phenyl)-2-phenylbut-1-enyl) phenol]
- AUC(0-inf) (oral, 2 mg, Day 1, 2 mg, N 6, read-out: AUC0-inf, Mean): 1110 ng·h/mL
- AUC(0-inf) (oral, 2 mg, Day 1, 2 mg, N 6, read-out: AUC0-inf, Median): 1100 ng·h/mL
- AUC(0-t) (oral, 2 mg, Day 1, 2 mg, N 6, read-out: AUC24hr, GeoMean): 301 ng·h/mL
- AUC(0-t) (oral, 2 mg, Day 1, 2 mg, N 6, read-out: AUC24hr, Mean): 305 ng·h/mL
- AUC(0-t) (oral, 2 mg, Day 1, 2 mg, N 6, read-out: AUC24hr, Median): 303 ng·h/mL
- AUC(0-t) (oral, 2 mg, Day 1, 2 mg, N 6, read-out: AUCTlast, GeoMean): 862 ng·h/mL
- AUC(0-t) (oral, 2 mg, Day 1, 2 mg, N 6, read-out: AUCTlast, Mean): 889 ng·h/mL
- AUC(0-t) (oral, 2 mg, Day 1, 2 mg, N 6, read-out: AUCTlast, Median): 955 ng·h/mL
- Cmax (oral, 2 mg, Day 1, 2 mg, N 6, read-out: Cmax, GeoMean): 17.3 ng/mL
- Cmax (oral, 2 mg, Day 1, 2 mg, N 6, read-out: Cmax, Mean): 17.7 ng/mL
- Cmax (oral, 2 mg, Day 1, 2 mg, N 6, read-out: Cmax, Median): 17.5 ng/mL
- Tmax (oral, 2 mg, Day 1, 2 mg, N 6, read-out: Tmax, GeoMean): 4.19 h
- Tmax (oral, 2 mg, Day 1, 2 mg, N 6, read-out: Tmax, Mean): 4.28 h
- Tmax (oral, 2 mg, Day 1, 2 mg, N 6, read-out: Tmax, Median): 4.17 h
- Vd/F (oral, 2 mg, Day 1, 2 mg, N 6, read-out: Vz/F, GeoMean): 127 L
- Vd/F (oral, 2 mg, Day 1, 2 mg, N 6, read-out: Vz/F, Mean): 131 L
- Vd/F (oral, 2 mg, Day 1, 2 mg, N 6, read-out: Vz/F, Median): 118 L
- half-life (oral, 1-4 mg, read-out: apparent terminal half life (t½) by dose level): 42 to 53 h
- Tmax (oral, Days 1 and 21, 1-4 mg, read-out: Median Tmax by dose level): 4 to 8 h
- AUC(0-inf) (oral, dosing range of 1 mg to 4 mg, read-out: AUC0-inf): 400 to 6000 ng·h/mL
- AUC(0-inf) (po, 1 mg, Dose: 1 mg oral, Day 1, read-out: AUC(0-inf), individual subjects): 593 ng·h/mL
- AUC(0-t) (po, 1 mg/day, Day 1, 1 mg/day oral (n = 5), read-out: AUC24 hr, Arithmetic Mean): 158 ng·h/mL
- Cmax (po, 1 mg/day, Day 1, 1 mg/day oral (n = 5), read-out: Cmax, Arithmetic Mean): 9.6 ng/mL
- Tmax (po, 1 mg/day, Day 1, 1 mg/day oral (n = 5), read-out: Median Tmax): 6 h
- Tmax (po, 1 mg/day, Day 1, 1 mg/day oral (n = 5), read-out: Tmax (Range)): 2 to 8.08 h
- half-life (po, 1 mg/day, Day 1, 1 mg/day oral (n = 5), read-out: t1/2, Arithmetic Mean (converted)): 41.1 h
- AUC(0-t) (po, 1 mg/day, Day 21, 1 mg/day oral (n = 5), read-out: AUC24 hr, Arithmetic Mean): 458 ng·h/mL
- Cmax (po, 1 mg/day, Day 21, 1 mg/day oral (n = 5), read-out: Cmax, Arithmetic Mean): 24.6 ng/mL
- Tmax (po, 1 mg/day, Day 21, 1 mg/day oral (n = 5), read-out: Median Tmax): 8 h
- Tmax (po, 1 mg/day, Day 21, 1 mg/day oral (n = 5), read-out: Tmax (Range)): 4 to 6.05 h
- half-life (po, 1 mg/day, Day 21, 1 mg/day oral (n = 5), read-out: t1/2, Arithmetic Mean (converted)): 52.6 h
- AUC(0-t) (po, 2 mg, Day 21, dose 2 mg oral once daily, GeoMean, N 6, read-out: AUC24hr): 897 ng·h/mL
- Cmax (po, 2 mg, Day 21, dose 2 mg oral once daily, GeoMean, N 6, read-out: Cmax): 48.8 ng/mL
- Tmax (po, 2 mg, Day 21, dose 2 mg oral once daily, GeoMean, N 6, read-out: Tmax): 3.64 h
- half-life (po, 2 mg, Day 21, dose 2 mg oral once daily, GeoMean, N 6, read-out: apparent terminal half life (t½) (converted)): 42.8 h
- Vd/F (po, 2 mg, Day 21, dose 2 mg oral once daily, GeoMean, N 6, read-out: volume of distribution (Vd/F)): 138 L
- AUC(0-t) (po, 2 mg, Day 21, dose 2 mg oral once daily, Mean, N 6, read-out: AUC24hr): 911 ng·h/mL
- Cmax (po, 2 mg, Day 21, dose 2 mg oral once daily, Mean, N 6, read-out: Cmax): 50 ng/mL
- Tmax (po, 2 mg, Day 21, dose 2 mg oral once daily, Mean, N 6, read-out: Tmax): 4.01 h
- half-life (po, 2 mg, Day 21, dose 2 mg oral once daily, Mean, N 6, read-out: apparent terminal half life (t½) (converted)): 43.4 h
- Vd/F (po, 2 mg, Day 21, dose 2 mg oral once daily, Mean, N 6, read-out: volume of distribution (Vd/F)): 139 L
- AUC(0-t) (po, 2 mg, Day 21, dose 2 mg oral once daily, Median, N 6, read-out: AUC24hr): 910 ng·h/mL
- Cmax (po, 2 mg, Day 21, dose 2 mg oral once daily, Median, N 6, read-out: Cmax): 51 ng/mL
- Tmax (po, 2 mg, Day 21, dose 2 mg oral once daily, Median, N 6, read-out: Tmax): 4 h
- half-life (po, 2 mg, Day 21, dose 2 mg oral once daily, Median, N 6, read-out: apparent terminal half life (t½) (converted)): 45.7 h
- Vd/F (po, 2 mg, Day 21, dose 2 mg oral once daily, Median, N 6, read-out: volume of distribution (Vd/F)): 132 L
- AUC(0-inf) (po, 2 mg, Dose: 2 mg oral, Day 1, read-out: AUC(0-inf), individual subjects): 1010 ng·h/mL
- AUC(0-t) (po, 2 mg/day, Day 1, 2 mg/day oral (n = 6), read-out: AUC24 hr, Arithmetic Mean): 305 ng·h/mL
- Cmax (po, 2 mg/day, Day 1, 2 mg/day oral (n = 6), read-out: Cmax, Arithmetic Mean): 17.7 ng/mL
- Tmax (po, 2 mg/day, Day 1, 2 mg/day oral (n = 6), read-out: Median Tmax): 4.17 h
- Tmax (po, 2 mg/day, Day 1, 2 mg/day oral (n = 6), read-out: Tmax (Range)): 3 to 6 h
- half-life (po, 2 mg/day, Day 1, 2 mg/day oral (n = 6), read-out: t1/2, Arithmetic Mean (converted)): 49 h
